From patent US20220227815A1, “COMPOSITIONS AND METHODS USEFUL IN TREATING BRAIN DISEASES” (University of Kansas, priority 2019, published 2022)
Entries after “also recorded” stand apart in the source; their conditions may differ. Positions of bridges follow the written chain, without caps; N, C: chain ends. Non-standard residues stand in square brackets, D forms with d. Residues, ends and D or L forms follow the SMILES beside them. ξ: configuration not given here. Thr(3ξ) = CC(O)[C@H](N)C(=O)O

Tests used:
[1] = system: blood-brain barrier (BBB); assay: In vivo brain delivery of IRdye800CW-albumin (65 kDa); conditions: IRdye800CW-albumin 21.6 nmol/kg i.v. alone or with 13 μmol/kg peptide; C57BL/6 mice
Method: (§1) The BBB modulatory activities of ADTC5 and HAV6 to enhance brain delivery of IRdyeR800CW-labeled lysozyme, albumin, IgG mAb, and fibronectin were compared in C57BL/6 mice. The proteins with or without 13 μmol/kg HAV6 or ADTC5 were administered via tail vein injection. For lysozyme, the delivered doses were 21.6 and 54 nmol/kg. For albumin, IgG mAb, and fibronectin, the dose used was 21.6 nmol/kg. Fifteen minutes after IgG mAb administration with or without a peptide of the present technology, the animals were sacrificed and PBS with 0.5% Tween-20 was administered for cardiac perfusion to remove the remaining protein in the BBB microvessels. The brain and other organs such as lung, heart, spleen, liver and kidney were harvested and rinsed with PBS. Protein depositions in the brain and other organs were quantified by NIRF imaging using an Odyssey CLx NIRF scanner.
(§2) A second quantification method was done using brain homogenates. In this case, the brains were homogenized in 2.0 mL PBS by mechanical disruption and 200 μL of homogenized brain (n=8) was aliquoted to a 96-well plate followed by quantification using the Odyssey CLx scanner. The signal intensity was compared to calibration curve and normalized to brain weight and homogenate volume.
(§3) Brain Perfusion. After euthanasia using CO2 chamber, mice were immediately subjected to cervical dislocation followed by removal of IRdye800CW-labeled protein from the brain capillaries using perfusion solution. In this case, a solution containing PBS with 0.2% Tween-20 was transcardially perfused to remove the remaining protein molecules in the brain endothelial microvessels. After perfusion, the brain was removed from the skull and subjected to capillary depletion.

[2] = system: blood-brain barrier (BBB); assay: In vivo brain delivery of IRdye800CW-IgG mAb, NIRF quantification in brain homogenates; conditions: C57BL/6 mice
Method: The activity of each peptide in enhancing blood-brain barrier (BBB) penetration was evaluated by delivering IRdye800CW donkey anti-goat IgG mAb in C57BL/6 mice; the amounts of mAb in the brain were determined using NIRF imaging. Each group contained 3 mice per group (n=3) with a mixture of male and female mice, selected randomly for each arm of the study. The injection solution was prepared by adding 600 μL PBS into 0.5 mg lyophilized IgG mAb; then, approximately 1.5 mg lyophilized peptide was added into the mixture yielding the injectable formulation. A 100 μL solution of a mixture containing IgG mAb (21.6 nmol/kg) along with 13 μmol/kg peptide of the present technology was administered via tail vein. As a control, 100 μL of IgG mAb alone was administered via i.v. route. After the delivered molecules had been circulating for 15 min, the mice were sacrificed; then, a mixture of PBS with 0.5% Tween20 was administered for cardiac perfusion to remove the blood and […] molecules into the brain microvessels. The brain and other organs such as lung, heart, spleen, liver, and kidney were harvested and rinsed with PBS. The isolated organs were scanned with Odyssey® CLx for mAb quantification.
The brain deposition of IgG mAb was also quantified by NIRF imaging in brain homogenates. The isolated brains were mechanically homogenized in 2.0 mL of PBS. To make the standard solutions, IRDye800CW IgG mAb stock solution (70 μg/mL) was prepared; it was then diluted with various amounts of PBS to make six different mAb concentrations. To generate a calibration curve, the brain homogenate (200 μL) was aliquoted out to a 96-well plate. 10 μL of each concentration of IgG mAb was added to three different wells of blank brain homogenates. The standard spiked homogenates were at a range of 10-200 ng/mL IgG mAb in brain homogenate. The wells were scanned using the Odyssey® CLx scanner, and the signal intensities vs. concentrations of mAb per gram of brain were used to generate a calibration curve.
as §1, §2

[3] = system: blood-brain barrier (BBB); assay: In vivo brain delivery of IRdye800CW-lysozyme (15 kDa); design: species or system C57BL/6 mice
Method: Preparation of Stock and Standard Curves. The stock solution for IRDye800CW protein (i.e., lysozyme, 70 μg/mL) was prepared and stored at −80° C. The stock solution was later diluted with PBS to make the required standard solutions. To produce a standard calibration curve, 200 μL of blank brain homogenates was spiked with 10 μL standard solutions of various concentrations to yield a linear range from 0.5 to 50 ng/mL. The same method was employed for the sample's quality control (QC).
as §1, §2, §3

[4] = system: blood-brain barrier (BBB); assay: Brain delivery of IRdye800CW-IgG mAb in SJL/elite mice, whole brain NIRF imaging; type: in vivo; conditions: IgG mAb 26.8 nmol/kg i.v. alone (n=4) or with ADTC5 13 μmol/kg (n=5), 15 min
Method: Brain Delivery IRdye800CW-labeled IgG mAb using ADTC5 in SJL/elite Mice. For initial evaluation of whether ADTC5 can deliver proteins into the brain, IRdye800CW donkey-anti-goat IgG mAb was administered via i.v. with and without ADTC5 peptide in 5-8-week-old SJL/elite mice. Two groups of healthy SJL/elite mice were injected with (a) a mixture of IgG mAb (26.8 nmol/kg) and ADTC5 peptide (13 μmol/kg) (n=5) and (b) IgG mAb alone (26.8 nmol/kg) (n=4). After 15 min in the systemic circulation, the mice were euthanized using CO2 inhalation followed by brain perfusion using PBS to remove the remaining protein in the BBB microvasculature. Next, the brains were isolated followed by NIRF imaging using Licor Odyssey CLx (Licor, Lincoln, Nebr.). Eight optical sections were taken at 0.5 mm increments beginning from the bottom surface of the brain to a depth of 4 mm. The optical sections were summed to yield a fluorescence intensity value per each brain.

[5] = system: SJL/elite EAE mice; assay: Suppression of EAE relapse, clinical scores; type: in vivo; conditions: BDNF 5.71 nmol/kg and/or ADTC5 10 μmol/kg i.v.
Method: EAE Mouse Model: EAE disease in animals (5-8-week-old SJL/elite female mice, Charles River) was stimulated by injecting 200 μg of PLP139-151 peptide in a 0.2 mL emulsion containing equal volumes of PBS and complete Freund's adjuvant (CFA) with killed mycobacterium tuberculosis strain H37RA (Difco, Detroit, Mich.; final concentration 4 mg/mL) as described in Kobayashi, N.; Kiptoo, P.; Kobayashi, H.; Ridwan, R.; Brocke, S.; Siahaan, T. J. Prophylactic and therapeutic suppression of experimental autoimmune encephalomyelitis by a novel bifunctional peptide inhibitor. Clin Immunol 2008, 129, (1), 69-79 and Kobayashi, N.; Kobayashi, H.; Gu, L.; Malefyt, T.; Siahaan, T. J. Antigen-specific suppression of experimental autoimmune encephalomyelitis by a novel bifunctional peptide inhibitor. J Pharmacol Exp Ther 2007, 322, (2), 879-86. Briefly, […] of PLP/CFA emulsion was administered to four different regions above the shoulders and the flanks on Day 0 followed by intraperitoneal injection of 200 ng of pertussis toxin (List Biological Laboratories, Campbell, Calif.) on Days 0 and 2. Clinical scores that reflect the disease progression were determined using an 11-point scale with 0.5 increments ranging from 0 to 5; 0 being no apparent disease and 5 being moribund. On Day 21, mice were randomly separated into […]: (i) BDNF (5.7 nmol/kg)+ADTC5 (10 μmol/kg; n=7), (ii) BDNF alone (5.71 nmol/kg, n=6), (iii) ADTC5 alone (10 μmol/kg; n=5), and (iv) vehicle (n=5). All mice received 8 intravenous injections every 4 days beginning on Day 21. The mice were euthanized via CO2 inhalation on Day 55. Area under the curve (AUC) calculations were used to compare clinical scores across groups; AUC calculations were performed using the trapezoid rule from Days 21 to 55.

[6] = system: blood-brain barrier (BBB); assay: In vivo brain delivery of IRdye800CW-fibronectin (220 kDa); design: species or system C57BL/6 mice
Method: as §1, §2, §3

[7] = IgG mAb 21.6 nmol/kg + 13 μmol/kg peptide i.v.

## CC(=O)N[C@H]1CSSC[C@@H](C(N)=O)NC(=O)[C@H](C(C)C)NC(=O)[C@@H]2CCCN2C(=O)[C@@H]2CCCN2C(=O)[C@H](C(C)O)NC(=O)[C@H](CC(=O)O)NC1=O (some centres unmarked) [ADTC5, cyclo(1,7)acetyl-CDTPPVC-NH2] (Ac-CD[Thr(3ξ)]PPVC-NH2; disulfide 1-7)
[1]
  amount of albumin in the brain: 40.7±7.4 pmol/g brain
[2]; IRdye800CW-IgG mAb 21.6 nmol/kg i.v. alone or with 13 μmol/kg peptide, 15 min circulation, n=3
  average amount of IgG mAb in the brain: 13.3±0.7 pmol/g brain
[2]; [7]
  brain delivery of IgG mAb compared to control (IgG mAb alone): significantly better than in the PBS control; also recorded: significant difference
  enhancement of mAb brain deposition relative to control: about three times that of control
[3]; IRdye800CW-lysozyme 54 nmol/kg i.v. alone or with 13 μmol/kg peptide, C57BL/6 mice
  amount of lysozyme in the brain: 37.8±7.1 pmol/g brain
[3]; lysozyme 21.6 nmol/kg with 13 μmol/kg peptide
  brain delivery of lysozyme compared to lysozyme alone: no significant improvement
[4]
  whole brain NIRF signal of IRDye800CW-IgG mAb: significantly higher signal intensity
[5]; 8 injections
  locomotion / paralysis observed: partial or full hind leg paralysis and full tail paralysis
[5]; 8 injections every 4 days from day 21, compared with other groups/vehicle
  EAE clinical body scores: no significant difference
[6]; IRdye800CW-fibronectin 21.6 nmol/kg i.v. alone or with ADTC5 13 μmol/kg
  NIRF signal of fibronectin in brain homogenates: 35.498±3.001 ×10^3 A.U.
[6]; fibronectin 21.6 nmol/kg with ADTC5 13 μmol/kg vs fibronectin alone
  brain delivery of 220 kDa fibronectin: did not enhance
